For 6 compounds, IC50 results are on record in patent US20240228465A1, “SUBSTITUTED PYRIDINE N-OXIDE DERIVATIVES USEFUL AS A FACTOR XIA INHIBITORS” (Janssen Pharmaceutica NV, priority 2021, published 2024).

One experiment concerns the target Factor XIa (Homo sapiens, UniProt P03951). Put plainly: Factor XIa inhibition assay utilizing a fluorophore-quencher pair peptide substrate (FLINT). Type of experiment: biochemical. The conditions noted are these: 30 min preincubation. The source says: Biological Example 1: Factor XIa Inhibition Assay Utilizing a Fluorophore-Quencher Pair Peptide Substrate
A fluorescence intensity (FLINT) based assay was used to monitor inhibition of Factor XIa. The peptide substrate, 5Fam-KLTRAETV-K5Tamra (purchased from New England Peptide) was chosen based on the […]. Conversion of zymogen […]. The custom peptide used in this assay was based on the Arg146 cleavage site of FXI. The peptide substrate was designed with a fluorophore-quencher pair, where the fluorescence is quenched until FXIa cleaves the 8-mer peptide after the Arg residue. The substrate KM was fit to a substrate inhibition model whereby kcat=0.86 s^−1, KM=12.4 μM, Ki=61.6 μM with an enzymatic efficiency, and kcat/KM=69523 M^−1s^−1.
The Factor XIa FLINT assay was used with the following 5Fam-KLTRAETV-K5Tamra assay buffer: 50 mM Tris, pH 7.5, 100 mM NaCl, 5 mM CaCl2, 0.1 mg/mL BSA, 0.03% CHAPS. Assay buffer was prepared by mixing all ingredients fresh. 5Fam-KLTRAETV-K5Tamra peptide substrate was first prepared at 10 mM in 100% DMSO, then diluted to 3 mM in 100% DMSO. Assay buffer was then added directly to the 3 mM stock of substrate to prepare the 30 μM 2× working concentration (15 μM final concentration). The 2× Factor XIa stock solution was prepared by diluting 6.562 μM stock in 1× assay buffer for a […].
Test compound(s) were run in an 11-point, 3-fold serial dilution with a final top compound concentration of 100 nM. Final DMSO in assay was 2%. FXIa was preincubated with compound for 30-minutes and then substrate was added to initiate the reaction. The assay was run with either end point (EP) reads at 30 min or kinetic (KIN) reads at 5 min intervals over 30 minutes. The time course was linear using 100 μM FXIa greater than 30 minutes. More specifically, the assay was run as follows: • 100 nL of 0.01 mM test compound was dispensed into black 384-well non-binding Greiner BioOne 784900 plate for 0.1 μM final concentration; • 5 μL of 1× assay buffer was dispensed to column 24 (low control) and 5 μL 2× Factor XIa solution was dispensed to columns 1-23 (column 23 high control); • the plate was centrifuged with a “cover” plate at 500 rpm for 1 min • the plate was pre-incubated for 30 minutes at room temperature with plate covered; • 5 μL of 2× 5Fam-KLTRAETV-K5Tamra peptide substrate was dispensed into the entire plate, columns 1-24; • the plate was centrifuged with a “cover” plate at 500 rpm for 1 min; • the plate was read monitoring fluorescence intensity on the BMG PHERAStar at room temperature, using fluorescence module 485 nm/520 nm.
(§1) Percent inhibition (IC50) curves were generated per compound tested, and data was analyzed using a 4-parameter logistic fit using GeneData Screener. The relative fluorescence unit (RFU) values were normalized to percent inhibition using the following equation:
[formula] • where LC—low control=mean signal of no Factor XIa or 100% inhibition of Factor XIa; HC—high control=mean signal of Factor XIa+5Fam-KLTRAETV-K5Tamra peptide substrate with DMSO only.
(§2) An 11-point dose response curve for the test compound(s) was generated using GENDATA to determine IC50 value based on the following equation:
[formula] • where Y is the % inhibition in the presence of X inhibitor concentration, Top=high control=mean signal of Factor XIa+5Fam-KLTRAETV-K5Tamra peptide substrate with DMSO only; Bottom=low control—mean signal of no Factor XIa or 100% inhibition of Factor XIa; HillSlope—Hill coefficient; and IC50=concentration of compound with 50% inhibition in relation to top/high control.
Representative compounds of formula (I) of the present invention were tested according to the procedure described in Biological Example 1 and Biological Example 2 above, with results as listed in Table 3, below. […]

In a further experiment the target is human plasma kallikrein (Homo sapiens, UniProt P03952). Put plainly: Kallikrein inhibition assay utilizing a quenched AMC peptide substrate (FLINT). Type of experiment: biochemical. Here is the method: Biological Example 2: Kallikrein Inhibition Assay Utilizing a Quenched AMC Peptide Substrate
Chain of human plasma kallikrein (P03952 391-638 limits assumed): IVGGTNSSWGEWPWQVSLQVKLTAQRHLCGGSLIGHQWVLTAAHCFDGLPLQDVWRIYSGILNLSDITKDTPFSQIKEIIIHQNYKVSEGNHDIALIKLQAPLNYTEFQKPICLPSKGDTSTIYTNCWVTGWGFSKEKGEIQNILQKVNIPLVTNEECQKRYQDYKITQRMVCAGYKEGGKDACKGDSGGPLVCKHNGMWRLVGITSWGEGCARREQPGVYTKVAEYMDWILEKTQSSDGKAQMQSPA
Chain of human plasma kallikrein (P03952 20-390 partner limits assumed): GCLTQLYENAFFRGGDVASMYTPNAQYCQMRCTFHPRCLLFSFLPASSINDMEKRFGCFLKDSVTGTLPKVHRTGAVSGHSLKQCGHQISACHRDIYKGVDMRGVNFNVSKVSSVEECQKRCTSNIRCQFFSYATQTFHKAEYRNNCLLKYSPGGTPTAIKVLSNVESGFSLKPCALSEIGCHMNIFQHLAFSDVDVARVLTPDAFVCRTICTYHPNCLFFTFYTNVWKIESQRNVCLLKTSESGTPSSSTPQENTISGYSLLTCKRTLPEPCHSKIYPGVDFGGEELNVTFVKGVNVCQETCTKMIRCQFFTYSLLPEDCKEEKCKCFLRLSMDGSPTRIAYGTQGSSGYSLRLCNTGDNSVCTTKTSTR
A fluorescence intensity (FLINT) based assay was used to monitor inhibition of human plasma kallikrein. The peptide substrate, Z-Gly-Pro-Arg-AMC (Purchased from Bachem; Catalog #I-1150) was chosen based on its relatively low KM for kallikrein which enables running the assay at lower substrate concentrations to control background fluorescence. The kinetic parameters for this substrate were determined by fitting titration data to the Michaelis-Menten equation yielding a KM=40 μm, kcat=0.76 s^−1, and kcat/KM=18932 M^−1s^−1.
The Kallikrein FLINT assay was used with the following Z-Gly-Pro-Arg-AMC assay buffer: 50 mM Tris, pH 7.5, 100 mM NaCl, 5 mM CaCl2, 0.1 mg/mL BSA, 0.03% CHAPS. Assay buffer was prepared by mixing all ingredients fresh. 2× Z-Gly-Pro-Arg-AMC peptide substrate was prepared by diluting 10 mM stock into 1× assay buffer for a 100 μM working concentration (50 μM final concentration). The 2× kallikrein stock solution was prepared by diluting 14.76 μM stock in 1× assay buffer for a 4 nM working stock solution (2 nM final concentration).
Test compound(s) were run in an 11-point, 3-fold serial dilution with a final top compound concentration of 1 μM. Final DMSO in assay was 2%. Plasma kallikrein was pre-incubated for 30-minute with compound and then 50 μM substrate was added to initiate the reaction. The assay was run with either end point (EP) reads at 30 min or kinetic (KIN) reads at 5 min intervals over 30 minutes. The time course was linear using 2 nM kallikrein greater than 30 minutes. More specifically, the assay was run as follows: • 100 nL of 0.1 mM test compound was dispensed into black 384-well non-binding Greiner BioOne 784900 plate for 1 μM final concentration; • 5 μL of 1× assay buffer was dispensed to columns 24 (low control) and 5 μL 2× human kallikrein enzyme solution was dispensed to columns 1-23 (column 23 high control); • the plate was centrifuged with a “cover” plate at 500 rpm for 1 min • the plate was pre-incubated for 30 minutes at room temperature with plate covered; • 5 μL of 2× Z-Gly-Pro-Arg-AMC peptide substrate was dispensed into the entire plate, columns 1-24; • the plate was centrifuged with a “cover” plate at 500 rpm for 1 min; • the plate was read monitoring fluorescence intensity on the BMG PHERAStar at room temperature, using fluorescence module 340 nm/440 nm.
as §1
% inhibition=((HC−LC)−(compound−LC)/(HC−LC))*100 • where LC—low control=mean signal of human kallikrein enzyme or 100% inhibition of human kallikrein enzyme; HC—high control=mean signal of Factor XIa+Z-Gly-Pro-Arg-AMC peptide substrate with DMSO only.
as §2
Y=Bottom+(Top−Bottom)/(1+10^((log IC50−X)*HillSlope)) • where Y is the % inhibition in the presence of X inhibitor concentration, Top=high control=mean signal of human kallikrein enzyme+Z-Gly-Pro-Arg-AMC peptide substrate with DMSO only; Bottom=low control—mean signal of no human kallikrein enzyme or 100% inhibition of human kallikrein enzyme; HillSlope—Hill coefficient; and IC50=concentration of compound with 50% inhibition in relation to top/high control.
Representative compounds of formula (I) of the present invention were tested according to the procedure described in Biological Example 1 and Biological Example 2 above, with results as listed in Table 3, below. Results listed in the (ER) column were measured using endpoint reads where a single fluorescence reading was measured for each well at a 30 min timepoint. […]

The mark [1] stands for this setting: end point read at 30 min, read-out: FXIa (EP) IC50.
Setting [2] is: end point read at 30 min, 30 min preincubation, read-out: Kallikrein (EP) IC50.
The mark [3] stands for this setting: kinetic reads at 5 min intervals over 30 min, read-out: FXIa (KIN) IC50.
The mark [4] stands for this setting: kinetic reads, unit μM, read-out: Kallikrein (KIN) IC50.
Where [5] appears, read: kinetic reads at 5 min intervals over 30 min, 30 min preincubation, read-out: Kallikrein (KIN) IC50.

Each structure is given as a SMILES string. Read-outs that look alike come from different tables or passages of the source.

Chain of Factor XIa (P03951 388-625 limits assumed): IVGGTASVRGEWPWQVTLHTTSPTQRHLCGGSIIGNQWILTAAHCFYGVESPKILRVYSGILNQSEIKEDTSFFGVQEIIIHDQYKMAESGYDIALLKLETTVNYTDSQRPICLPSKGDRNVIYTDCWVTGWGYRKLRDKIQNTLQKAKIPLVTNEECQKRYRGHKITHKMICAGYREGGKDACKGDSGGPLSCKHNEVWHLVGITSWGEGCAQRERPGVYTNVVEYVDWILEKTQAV
Chain of Factor XIa (P03951 19-387 partner limits assumed): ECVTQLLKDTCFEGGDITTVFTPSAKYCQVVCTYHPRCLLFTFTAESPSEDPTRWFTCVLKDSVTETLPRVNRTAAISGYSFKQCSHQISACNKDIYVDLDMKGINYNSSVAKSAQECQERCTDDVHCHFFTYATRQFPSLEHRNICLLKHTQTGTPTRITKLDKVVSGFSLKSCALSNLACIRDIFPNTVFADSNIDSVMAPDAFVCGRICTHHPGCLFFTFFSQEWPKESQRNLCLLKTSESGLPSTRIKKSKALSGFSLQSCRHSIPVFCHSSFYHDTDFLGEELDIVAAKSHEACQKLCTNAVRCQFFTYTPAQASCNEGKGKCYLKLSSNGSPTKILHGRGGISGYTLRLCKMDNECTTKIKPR

One may read the IC50 as the concentration at which inhibition is half-maximal. Take `O=C(O)c1ccc(-c2cn(C(CC3CC3)c3ccc(-c4cc(Cl)ccc4-n4cnnn4)c[n+]3[O-])nn2)cc1` (stereo not drawn) [T1, 2-(1-(4-(4-Carboxyphenyl)-1H-1,2,3-triazol-1-yl)-2-cyclopropylethyl)-5-(5-chloro-2-(1H-tetrazol-1-yl)phenyl)pyridine 1-oxide]: the figures for the IC50 at Factor XIa (setting [1]) and on human plasma kallikrein (setting [2]) were 1.6 nM and 0.0835 µM, respectively.

With `O=C(NC1CC1)c1ccc(-c2cn(C(CC3CC3)c3ccc(-c4cc(Cl)ccc4-n4cnnn4)c[n+]3[O-])nn2)cc1` (stereo not drawn) [T2, 5-(5-Chloro-2-(1H-tetrazol-1-yl)phenyl)-2-(2-cyclopropyl-1-(4-(4-(cyclopropylcarbamoyl)phenyl)-1H-1,2,3-triazol-1-yl)ethyl)pyridine 1-oxide], the IC50 was 38.1 nM at Factor XIa (setting [1]) and 0.367 µM on human plasma kallikrein (setting [2]).

With `Cn1nncc1-c1cn([C@@H](CC2CC2)c2ccc(-c3c(-n4cnnn4)ccc(Cl)c3F)c[n+]2[O-])nn1` [T5, (S)-5-(3-Chloro-2-fluoro-6-(1H-tetrazol-1-yl)phenyl)-2-(2-cyclopropyl-1-(3′-methyl-1H,3′H-[4,4′-bi(1,2,3-triazol)]-1-yl)ethyl)pyridine 1-oxide], the figures for the IC50 at Factor XIa (setting [3]) and at human plasma kallikrein (setting [4]) were 308 nM and above 10 µM, respectively.

With `Cn1nncc1-c1cn([C@H](CC2CC2)c2ccc(-c3c(-n4cnnn4)ccc(Cl)c3F)c[n+]2[O-])nn1` [T6, (R)-5-(3-Chloro-2-fluoro-6-(1H-tetrazol-1-yl)phenyl)-2-(2-cyclopropyl-1-(3′-methyl-1H,3′H-[4,4′-bi(1,2,3-triazol)]-1-yl)ethyl)pyridine 1-oxide], the IC50 stood at 3.4 nM on Factor XIa (setting [3]) and 0.312 µM on human plasma kallikrein (setting [5]).

In the case of `Cn1ncnc1-c1cn(C(CCOC(F)F)c2ccc(-c3c(-n4cc(C(F)(F)F)nn4)ccc(Cl)c3F)c[n+]2[O-])nn1` (stereo not drawn) [T7, 5-(3-Chloro-2-fluoro-6-(4-(trifluoromethyl)-1H-1,2,3-triazol-1-yl)phenyl)-2-(3-(difluoromethoxy)-1-(4-(1-methyl-1H-1,2,4-triazol-5-yl)-1H-1,2,3-triazol-1-yl)propyl)pyridine 1-oxide], the IC50 was around 2.3 nM at Factor XIa (setting [3]) and around 0.334 µM on human plasma kallikrein (setting [5]).

For `[O-][n+]1cc(-c2c(-n3cc(C(F)(F)F)nn3)ccc(Cl)c2F)ccc1[C@H](CCOC(F)F)n1cc(-c2cnnn2C(F)F)nn1` [T9, (S)-5-(3-Chloro-2-fluoro-6-(4-(trifluoromethyl)-1H-1,2,3-triazol-1-yl)phenyl)-2-(3-(difluoromethoxy)-1-(3′-(difluoromethyl)-1H,3′H-[4,4′-bi(1,2,3-triazol)]-1-yl)propyl)pyridine 1-oxide], the results for the IC50 at Factor XIa (setting [3]) and at human plasma kallikrein (setting [4]) were above 100 nM and above 1 µM, respectively.
